Data from patent US20250176602A1, “Composition for Proliferation of Bacteroides uniformis in the Intestinal Tract” (Asahi Group Holdings, Ltd., priority 2019, published 2025).

Tests used:
[1] = Fatigue feeling mitigation test, VAS questionnaire after Aerobike exercise loading (Example 2); format: in vivo, human
Method: (§1) As test subjects, 21 healthy males at the ages of 20 to 49 who have exercise habits of conducting exercise with an intensity of 5 METs or more for 30 minutes or more once or twice a week and who can continue the exercise habits during the test period as well were selected.
(§2) Among the 21 test subjects, 10 test subjects were selected as an α-cyclodextrin (αCD) intake group, and the remaining 11 test subjects were selected as a placebo group. The test subjects themselves were not informed who belonged to which group.
(§3) Test Supplements (tablets) having compositions described in Table 1 below were used. One tablet of the test supplements was of about 250 mg.
(§4) Each test subject of the αCD intake group and the placebo group was asked to take in 3 tablets of the above test supplements once a day at any timing. That is, each test subject of the α-cyclodextrin intake group was asked to take in about 200 mg of α-cyclodextrin per day.
The intake period for the test supplements was set to 9 weeks, and change in gut flora was evaluated, a questionnaire on fatigue feeling was conducted, and change in travel time was evaluated, before the start of the intake, after 4-week intake, and after 8-week intake. Note that foods and beverages that are said to support sports and training, pharmaceutical products and quasi-pharmaceutical products that have recovery, prevention or amelioration of “fatigue”, “tiredness”, “physical strength” and/or “lassitude” as the indication and effects, as well as supplements in general (also including foods with functional claims and foods for specified health use) were prohibited to take in for 1 week counted from the date when the test subjects agreed to participate in the test and during the test period.
The test subjects were subjected to exercise loading (load intensity: at an intensity of 45% of the maximum exercise loading intensity of each test subject for 50 minutes) using Aerobike (trade mark) (manufactured by KONAMI Sports & Life Col., Ltd., model number AEROBIKE-75XLIII), before intake of the test supplements, after 4-week intake, and after 8-week intake. […] Regarding fatigue, a VAS (Visual Analogue Scale) questionnaire was conducted based on the VAS testing method for fatigue feeling established by Japanese Society of Fatigue Science, immediately after loading, 30 minutes after loading, and 60 minutes after loading, to investigate change in fatigue feeling with time. The items of the questionnaire were “general fatigue feeling”, “fatigue feeling of the legs”, “tension of the legs”, “general lassitude”, and “difficulty in breathing”, and the “best state (0 mm)” and the “worst state (100 mm)” in each item were based on criteria shown in Table 2. In each intake group, the amounts of change in measured value were evaluated after 4-week intake and after 8-week intake based on the measured value before intake. […] The significant test between the placebo group and the α-cyclodextrin (αCD) intake group for the general fatigue feeling was conducted by Student's t-test, and the result of the test was summarized as a graph in FIG. 2 (*: p<0.05). In addition, the results for the items “fatigue feeling of the legs”, “tension of the legs”, “general lassitude”, and “difficulty in breathing” were summarized in Table 3. In Table 3, the significant difference was studied by paired t-test for a comparison with before intake of αCD, and the significant test between the placebo group and the α-cyclodextrin (αCD) intake group was conducted by Student's t-test.

[2] = Exercise performance test, 10 km SPIN CYCLE travel time (Example 3); format: in vivo, human; details: about 200 mg/day
Method: as §1, §2, §3, §4
The intake period for the test supplements was set to 9 weeks, and change in gut flora was evaluated, a questionnaire on fatigue feeling was conducted, and change in travel time was evaluated, before the start of the intake, after 4-week intake, and after 8-week intake. […]

[3] = 30 minutes after exercise, after 4-week intake, about 200 mg/day
[4] = 30 minutes after exercise, after 8-week intake, about 200 mg/day
[5] = 30 minutes after exercise, before intake
[6] = 60 minutes after exercise, after 4-week intake, about 200 mg/day
[7] = 60 minutes after exercise, after 8-week intake, about 200 mg/day
[8] = 60 minutes after exercise, before intake
[9] = immediately after exercise, after 4-week intake, about 200 mg/day
[10] = immediately after exercise, after 8-week intake, about 200 mg/day
[11] = immediately after exercise, before intake

With OC[C@H]1O[C@@H]2O[C@H]3[C@H](O)[C@@H](O)[C@@H](O[C@H]4[C@H](O)[C@@H](O)[C@@H](O[C@H]5[C@H](O)[C@@H](O)[C@@H](O[C@H]6[C@H](O)[C@@H](O)[C@@H](O[C@H]7[C@H](O)[C@@H](O)[C@@H](O[C@H]1[C@H](O)[C@H]2O)O[C@@H]7CO)O[C@@H]6CO)O[C@@H]5CO)O[C@@H]4CO)O[C@@H]3CO [α-cyclodextrin] the “VAS Difficulty in breathing” value [1, 3] was 17.727 ± 15.300 mm, the “VAS Fatigue feeling of the legs” value [1, 3] was 38.002 ± 21.474 mm and the “VAS General lassitude” value [1, 3] was 27.436 ± 16.724 * mm. The “VAS Tension of the legs” value [1, 3] was 38.015 ± 21.098 mm, the “VAS Difficulty in breathing” value [1, 4] was 16.498 ± 18.581 * mm and the “VAS Fatigue feeling of the legs” value [1, 4] was 28.636 ± 21.115 ** mm. For the same molecule, the “VAS General lassitude” value [1, 4] was 24.728 ± 21.853 * mm, the “VAS Tension of the legs” value [1, 4] was 26.662 ± 21.491 ** mm and the “VAS Difficulty in breathing” value [1, 5] was 22.702 ± 23.028 mm. The “VAS Fatigue feeling of the legs” value [1, 5] was 42.045 ± 25.730 mm, the “VAS General lassitude” value [1, 5] was 39.689 ± 21.542 mm and the “VAS Tension of the legs” value [1, 5] was 41.674 ± 26.128 mm. For the same molecule, the “VAS Difficulty in breathing” value [1, 6] was 16.907 ± 16.405 mm, the “VAS Fatigue feeling of the legs” value [1, 6] was 31.167 ± 20.034 mm and the “VAS General lassitude” value [1, 6] was 20.932 ± 16.099 mm. The “VAS Tension of the legs” value [1, 6] was 29.904 ± 19.297 mm, the “VAS Difficulty in breathing” value [1, 7] was 12.228 ± 15.335 mm and the “VAS Fatigue feeling of the legs” value [1, 7] was 22.603 ± 21.310 * mm. For the same molecule, the “VAS General lassitude” value [1, 7] was 17.754 ± 19.279 * mm, the “VAS Tension of the legs” value [1, 7] was 22.193 ± 22.240 mm and the “VAS Difficulty in breathing” value [1, 8] was 16.882 ± 18.668 mm. For the same molecule, the “VAS Fatigue feeling of the legs” value [1, 8] was 34.945 ± 26.504 mm, the “VAS General lassitude” value [1, 8] was 30.096 ± 20.702 mm and the “VAS Tension of the legs” value [1, 8] was 33.394 ± 26.250 mm. The “general fatigue feeling after the exercise (VAS), change vs before intake, compared with placebo group” value ([1]; about 200 mg/day, after 4-week and 8-week intake, p<0.05) was “significantly decreased”, the “VAS Difficulty in breathing” value [1, 9] was 30.597 ± 21.390 * mm and the “VAS Fatigue feeling of the legs” value [1, 9] was 60.911 ± 21.493 mm. The “VAS General lassitude” value [1, 9] was 41.464 ± 17.587 mm, the “VAS Tension of the legs” value [1, 9] was 58.542 ± 25.137 mm and the “VAS Difficulty in breathing” value [1, 10] was 29.033 ± 20.173 ** mm. For the same molecule, the “VAS Fatigue feeling of the legs” value [1, 10] was 54.009 ± 23.092 mm, the “VAS General lassitude” value [1, 10] was 39.053 ± 21.314 * mm and the “VAS Tension of the legs” value [1, 10] was 55.137 ± 24.253 mm. The “VAS Difficulty in breathing” value [1, 11] was 44.516 ± 19.027 mm, the “VAS Fatigue feeling of the legs” value [1, 11] was 53.304 ± 25.421 mm and the “VAS General lassitude” value [1, 11] was 51.306 ± 20.273 mm. For the same molecule, the “VAS Tension of the legs” value [1, 11] was 59.341 ± 24.644 mm, the “travel time for 10 km” value ([2]; after 4-week intake, compared with same group before intake) was “significantly shortened” and the “travel time for 10 km” value ([2]; after 8-week intake, compared with same group before intake and placebo group after 8-week intake) was “significantly shortened”.
